Experimental data as given in patent US10329289B2, “6,7-dihydro-5H-pyrrolo[3,4-B]pyridin-5-one allosteric modulators of the M4 muscarinic acetylcholine receptor” (Merck Sharp & Dohme Corp., priority 2015, dated 2019).
pEC50: −log10 of the molar value.

Target: T1, human M4 muscarinic acetylcholine receptor (Homo sapiens, UniProt P08173)
T1 construct: expressed in transfected cells; host or cells: CHO-K1
T1 sequence (P08173 1-479): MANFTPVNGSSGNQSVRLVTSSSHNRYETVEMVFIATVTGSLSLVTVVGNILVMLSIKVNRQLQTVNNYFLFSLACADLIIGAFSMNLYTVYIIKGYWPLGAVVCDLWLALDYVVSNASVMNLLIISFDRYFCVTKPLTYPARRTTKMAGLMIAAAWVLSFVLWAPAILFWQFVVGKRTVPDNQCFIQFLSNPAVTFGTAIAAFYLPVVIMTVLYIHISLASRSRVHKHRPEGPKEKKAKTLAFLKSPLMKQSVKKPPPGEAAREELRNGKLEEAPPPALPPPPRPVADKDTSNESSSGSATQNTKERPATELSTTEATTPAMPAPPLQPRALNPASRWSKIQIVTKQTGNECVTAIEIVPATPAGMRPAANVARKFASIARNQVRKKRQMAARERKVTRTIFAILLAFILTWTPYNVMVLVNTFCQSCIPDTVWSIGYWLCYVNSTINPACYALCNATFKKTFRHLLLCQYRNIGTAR
Test: human FLIPR-based M4 PAM assay (Ca2+ mobilization, CHO-K1 cells with human M4 receptor and Gαqi5)
Type: cell-based
Details: acetylcholine at 20% of maximum response, read-out: M4 PAM IP
Method in brief: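 Calcium-mobilization (FLIPR) readout in dye-loaded CHO-K1 cells co-expressing human M4 receptor and Gαqi5. Potentiation measured against acetylcholine at a concentration giving 20% of maximal response, with an optional 70% addition; the reported value is the curve inflection point from a 4-parameter logistic fit.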

SMILES	pEC50
CCc1cc2c(nc1N1CCC(OCC3(C)CC3)CC1)CN(CCO)C2=O [Example 268, 3-ethyl-6-(2-hydroxyethyl)-2-(4-((1-methylcyclopropyl)methoxy)piperidin-1-yl)-6,7-dihydro-5H-pyrrolo[3,4-b]pyridin-5-one]	7.06
Cc1cc2c(nc1N1CCC(Oc3ccc4c(c3)COC4)CC1)CN([C@H](C)CO)C2=O [Example 268C, (R)-2-(4-((1,3-dihydro-2-benzofuran-5-yl)oxy)piperidin-1-yl)-6-(1-hydroxypropan-2-yl)-3-methyl-6,7-dihydro-5H-pyrrolo[3,4-b]pyridin-5-one]	7.28
Cc1cc2c(nc1N1CCC(Oc3ccc4c(c3)COC4)CC1)CN([C@@H](C)CO)C2=O [Example 268D, (S)-2-(4-((1,3-dihydro-2-benzofuran-5-yl)oxy)piperidin-1-yl)-6-(1-hydroxypropan-2-yl)-3-methyl-6,7-dihydro-5H-pyrrolo[3,4-b]pyridin-5-one]	7.55
COc1ccc(OC2CCN(c3nc4c(cc3C)C(=O)N(C3CC3)C4)CC2)cn1 [Example 269, 6-Cyclopropyl-2-(4-((6-methoxypyridin-3-yl)oxy)piperidin-1-yl)-3-methyl-6,7-dihydro-5H-pyrrolo[3,4-b]pyridin-5-one]	7.19
COc1ccc(OC2CCN(c3nc4c(cc3C)C(=O)NC4CO)CC2)cn1 (stereo not shown) [Example 270, 7-(Hydroxymethyl)-2-(4-((6-methoxypyridin-3-yl)oxy)piperidin-1-yl)-3-methyl-6,7-dihydro-5H-pyrrolo[3,4-b]pyridin-5-one]	7.32
COc1ccc(OC2CCN(c3nc4c(cc3C)C(=O)N(C)C4(CO)CO)CC2)cn1 [Example 274, 7,7-Bis(hydroxymethyl)-2-(4-((6-methoxpyridin-3-yl)oxy)piperidin-1-yl)-3,6-dimethyl-6,7-dihydro-5H-pyrrolo[3,4-b]pyridin-5-one]	5.93
Cc1cc2c(nc1N1CCC(Oc3ccccc3)CC1)[C@H](CO)N(C)C2=O [Example 275, (R)-7-(hydroxymethyl)-3,6-dimethyl-2-(4-phenoxypiperidin-1-yl)-6,7-dihydro-5H-pyrrolo[3,4-b]pyridin-5-one]	5.40
Cc1cc2c(nc1N1CCC(Oc3ccccc3)CC1)[C@@H](CO)N(C)C2=O [Example 276, (S)-7-(hydroxymethyl)-3,6-dimethyl-2-(4-phenoxypiperidin-1-yl)-6,7-dihydro-5H-pyrrolo[3,4-b]pyridin-5-one]	6.84
Cc1cc2c(nc1N1CC[C@@H](Oc3ccc4c(c3)COC4)[C@@H](F)C1)[C@H](CO)N(C)C2=O [Example 277, (R)-2-((3S,4R)-4-((1,3-dihydro-2-benzofuran-5-yl)oxy)-3-fluoropiperidin-1-yl)-7-(hydroxymethyl)-3,6-dimethyl-6,7-dihydro-5H-pyrrolo[3,4-b]pyridin-5-one]	5.47
Cc1cc2c(nc1N1CCC(Oc3cnc4c(c3)COC4)CC1)[C@H](CO)N(C)C2=O [Example 277A, (R)-2-(4-((5,7-dihydrofuro[3,4-b]pyridin-3-yl)oxy)piperidin-1-yl)-7-(hydroxymethyl)-3,6-dimethyl-6,7-dihydro-5H-pyrrolo[3,4-b]pyridin-5-one]	4.52
Cc1cc2c(nc1N1CC[C@@H](Oc3ccc4c(c3)COC4)[C@@H](F)C1)[C@@H](CO)N(C)C2=O [Example 278, (S)-2-((3S,4R)-4-((1,3-dihydro-2-benzofuran-5-yl)oxy)-3-fluoropiperidin-1-yl)-7-(hydroxymethyl)-3,6-dimethyl-6,7-dihydro-5H-pyrrolo[3,4-b]pyridin-5-one]	7.72
Cc1cc2c(nc1N1CCC(Oc3cnc4c(c3)COC4)CC1)[C@@H](CO)N(C)C2=O [Example 278A, (S)-2-(4-((5,7-dihydrofuro[3,4-b]pyridin-3-yl)oxy)piperidin-1-yl)-7-(hydroxymethyl)-3,6-dimethyl-6,7-dihydro-5H-pyrrolo[3,4-b]pyridin-5-one]	7.12
Cc1cc2c(nc1N1CCC(Oc3ccc(F)cc3)CC1)[C@@H](CO)N(C)C2=O [Example 279, (S)-2-(4-(4-fluorophenoxy)piperidin-1-yl)-7-(hydroxymethyl)-3,6-dimethyl-6,7-dihydro-5H-pyrrolo[3,4-b]pyridin-5-one]	7.52
Cc1cc2c(nc1N1CC[C@@H](Oc3ccc4c(c3)COC4)[C@H](F)C1)[C@H](CO)N(C)C2=O [Example 279A, (R)-2-((3R,4R)-4-((1,3-dihydro-2-benzofuran-5-yl)oxy)-3-fluoropiperidin-1-yl)-7-(hydroxymethyl)-3,6-dimethyl-6,7-dihydro-5H-pyrrolo[3,4-b]pyridin-5-one]	6.04
Cc1cc2c(nc1N1CCC(Oc3ccc(F)cc3)CC1)[C@H](CO)N(C)C2=O [Example 280, (R)-2-(4-(4-fluorophenoxy)piperidin-1-yl)-7-(hydroxymethyl)-3,6-dimethyl-6,7-dihydro-5H-pyrrolo[3,4-b]pyridin-5-one]	6.36
Cc1cc2c(nc1N1CC[C@@H](Oc3ccc4c(c3)COC4)[C@H](F)C1)[C@@H](CO)N(C)C2=O [Example 280A, (S)-2-((3R,4R)-4-((1,3-dihydro-2-benzofuran-5-yl)oxy)-3-fluoropiperidin-1-yl)-7-(hydroxymethyl)-3,6-dimethyl-6,7-dihydro-5H-pyrrolo[3,4-b]pyridin-5-one]	7.85
Cc1cc2c(nc1N1CCC(Oc3ccc4c(c3)COC4)CC1)[C@@H](CO)N(C)C2=O [Example 281, (S)-2-(4-((1,3-dihydro-2-benzofuran-5-yl)oxy)piperidin-1-yl)-7-(hydroxymethyl)-3,6-dimethyl-6,7-dihydro-5H-pyrrolo[3,4-b]pyridin-5-one]	7.64
COc1ccc(O[C@@H]2CCN(c3nc4c(cc3C)C(=O)N(C)[C@H]4CO)C[C@H]2F)cn1 [Example 281A, (R)-2-((3R,4R)-3-fluoro-4-((6-methoxypyridin-3-yl)oxy)piperidin-1-yl)-7-(hydroxymethyl)-3,6-dimethyl-6,7-dihydro-5H-pyrrolo[3,4-b]pyridin-5-one]	5.09
Cc1cc2c(nc1N1CCC(Oc3ccc4c(c3)COC4)CC1)[C@H](CO)N(C)C2=O [Example 282, (R)-2-(4-((1,3-dihydro-2-benzofuran-5-yl)oxy)piperidin-1-yl)-7-(hydroxymethyl)-3,6-dimethyl-6,7-dihydro-5H-pyrrolo[3,4-b]pyridin-5-one]	6.21

The next lines start with the values.

pEC50	SMILES
7.06	CO[C@H]1Cc2ccc(OC3CCN(c4nc5c(c(C)c4C)C(=O)N(CCO)C5)CC3)cc2C1 [Example 267D, (S)-6-(2-hydroxyethyl)-2-(4-((2-methoxy-2,3-dihydro-1H-inden-5-yl)oxy)piperidin-1-yl)-3,4-dimethyl-6,7-dihydro-5H-pyrrolo[3,4-b]pyridin-5-one]
7.16	Cc1cc2c(nc1N1CC[C@@H](Oc3ccc4c(cnn4C)c3)[C@@H](F)C1)CN(CCO)C2=O [Example 267E, 2-((3S,4R)-3-fluoro-4-((1-methyl-1H-indazol-5-yl)oxy)piperidin-1-yl)-6-(2-hydroxyethyl)-3-methyl-6,7-dihydro-5H-pyrrolo[3,4-b]pyridin-5-one]
7.77	Cc1c(N2CC[C@@H](OCC3(C)CC3)[C@H](F)C2)nc2c(c1C)C(=O)N(CCO)C2 [Example 267F, 2-((3R,4R)-3-fluoro-4-((1-methylcyclopropyl)methoxy)piperidin-1-yl)-6-(2-hydroxyethyl)-3,4-dimethyl-6,7-dihydro-5H-pyrrolo[3,4-b]pyridin-5-one]
6.77	CCc1cc2c(nc1N1CCC(Oc3ccc4cnn(C)c4c3)CC1)CN(CCO)C2=O [Example 268A, 3-ethyl-6-(2-hydroxyethyl)-2-(4-((1-methyl-1H-indazol-6-yl)oxy)piperidin-1-yl)-6,7-dihydro-5H-pyrrolo[3,4-b]pyridin-5-one]
7.20	Cc1c(N2CCC(Oc3ccc4c(c3)COCC4)CC2)nc2c(c1C)C(=O)N(CCO)C2 [Example 268B, 6-(2-hydroxyethyl)-2-(4-(isochroman-7-yloxy)piperidin-1-yl)-3,4-dimethyl-6,7-dihydro-5H-pyrrolo[3,4-b]pyridin-5-one]
7.17	Cc1c(N2CC[C@@H](Oc3ccc4c(cnn4C)c3)[C@@H](F)C2)nc2c(c1C)C(=O)N(CCO)C2 [Example 268E, 2-((3S,4R)-3-fluoro-4-((1-methyl-1H-indazol-5-yl)oxy)piperidin-1-yl)-6-(2-hydroxyethyl)-3,4-dimethyl-6,7-dihydro-5H-pyrrolo[3,4-b]pyridin-5-one]
7.41	Cc1c(N2CC[C@@H](OCC3(C)CC3)[C@@H](F)C2)nc2c(c1C)C(=O)N(CCO)C2 [Example 268F, 2-((3S,4R)-3-fluoro-4-((1-methylcyclopropyl)methoxy)piperidin-1-yl)-6-(2-hydroxyethyl)-3,4-dimethyl-6,7-dihydro-5H-pyrrolo[3,4-b]pyridin-5-one]
6.40	Cc1cc2c(nc1N1CCC(Oc3ccc4c(cnn4C)c3)CC1)CN(CO)C2=O [Example 272, 6-(Hydroxymethyl)-3-methyl-2-(4-((1-methyl-1H-indazol-5-yl)oxy)piperidin-1-yl)-6,7-dihydro-5H-pyrrolo[3,4-b]pyridin-5-one]
7.42	COc1ccc(O[C@@H]2CCN(c3nc4c(cc3C)C(=O)N(C)[C@@H]4CO)C[C@H]2F)cn1 [Example 282A, (S)-2-((3R,4R)-3-fluoro-4-((6-methoxypyridin-3-yl)oxy)piperidin-1-yl)-7-(hydroxymethyl)-3,6-dimethyl-6,7-dihydro-5H-pyrrolo[3,4-b]pyridin-5-one]
